Experimental data: publication PMC2193274 (The Journal of Experimental Medicine, 2000)

Key:
Dk = conditions: cited from earlier work
Qa-1^b = Qa-1^b (Mus musculus, UniProt P06339); format: binding; conditions: competition with biotin-Qdm4C
[1] = tested on: T2 cells expressing Qa-1^b (T237); format: cell-based, human; conditions: for Inhibition of killing of T237 targets by Qa-1^b-Qdm tetramer-positive NK cells: 30 μM peptide overnight and during the 4-h assay, Fig. 6

Qa-1^b, sequence (P06339 21-304 limits assumed): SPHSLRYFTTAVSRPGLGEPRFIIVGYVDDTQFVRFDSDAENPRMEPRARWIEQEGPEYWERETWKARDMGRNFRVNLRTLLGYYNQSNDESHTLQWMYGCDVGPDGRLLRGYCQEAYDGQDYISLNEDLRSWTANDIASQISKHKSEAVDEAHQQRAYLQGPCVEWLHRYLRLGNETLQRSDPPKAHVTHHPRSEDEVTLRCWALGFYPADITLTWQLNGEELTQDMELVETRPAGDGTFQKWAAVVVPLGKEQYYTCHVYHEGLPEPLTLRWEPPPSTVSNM
Qa-1^b, sequence (P61769 21-119 partner): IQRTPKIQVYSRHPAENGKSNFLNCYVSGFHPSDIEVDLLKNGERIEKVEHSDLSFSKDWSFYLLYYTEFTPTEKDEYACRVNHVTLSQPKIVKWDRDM

RRLGRTLLL [MT(389–397)]
Binding to Dk (Dk): high affinity

AMACRTLLL [Qdm4C]
Binding affinity for Qa-1 in competition assays compared with Qdm (Qa-1^b): affinity similar or identical to Qdm

KMAPRTLLL [Qdm P1]
Inhibition of killing of T237 targets by Qa-1^b-Qdm tetramer-positive NK cells [1]: Substantial inhibition

AMAPRTLLL [Qdm]
Inhibition of lysis of T237 targets by tetramer-negative NK cells [1]: does not inhibit lysis
Inhibition of killing of T237 targets by Qa-1^b-Qdm tetramer-positive NK cells [1]: markedly inhibit killing
